According to paper PMC10725991, “Kaempferol is a novel antiviral agent against channel catfish virus infection through blocking viral attachment and penetration in vitro” (Frontiers in Veterinary Science, 2023):

Tests used:
[1] = test system: CCV (strain VR-665) in CCO cells; test: Anti-CCV replication assay of kaempferol, RT-qPCR; format: cell-based, Channel catfish virus (CCV, Ictalurid herpesvirus 1)
Description: The CCO cells were infected with the CCV at 10^3 TCID50/ml at 28°C for 1 h. Then, the cell culture medium was replaced using isopycnic DMEM medium containing various concentrations kaempferol (2.5, 5, 7.5, 10, 12.5, and 15 μg/mL). The cells without exposure to kaempferol and CCV were set as the mock control. CCV-infected cells served as a negative control. 24 and 36 h post-infection, the cells were collected and subjected to the RT-qPCR and western blot analysis for the viral gene and protein expression. Meanwhile, the cells were treated as described above for the determination of virus titer. […]
For RT-qPCR, the total RNA was isolated from CCV-infected cells using RnaExTM (Trizol)^a reagent (GENERAY, China), and reversed transcribed applying a HiScript III RT SuperMix with gDNA wiper (Vazyme, China) following the manufacturer’s instructions. Quantitative PCR was performed with a LightCycler 96 Real-Time PCR Detection System (Roche, USA) using ChamQ Universal SYBR qPCR Master Mix (Vazyme, China) with the following cycle conditions: 95°C for 30 s, followed by 40 cycles of 95°C for 10 s and 60°C for 30 s. […] Fold changes of the selected gene vs 18 s (internal reference) were calculated by the 2^−△△Ct method.
Figure 3 The anti-CCV activity by different concentration of kaempferol in vitro. […] The p value was determined by *p < 0.05, **p < 0.01.

[2] = test system: CCV in CCO cells; test: Virus titration assay (TCID50) after kaempferol treatment; format: cell-based, Channel catfish virus (CCV, Ictalurid herpesvirus 1); conditions: increasing concentration 2.5-15 μg/mL, 24 and 36 h post CCV infection
Description: The CCO cells were infected with the CCV at 10^3 TCID50/ml at 28°C for 1 h. Then, the cell culture medium was replaced using isopycnic DMEM medium containing various concentrations kaempferol (2.5, 5, 7.5, 10, 12.5, and 15 μg/mL). The cells without exposure to kaempferol and CCV were set as the mock control. CCV-infected cells served as a negative control. 24 and 36 h post-infection, the cells were collected and subjected to the RT-qPCR and western blot analysis for the viral gene and protein expression. Meanwhile, the cells were treated as described above for the determination of virus titer. The supernatant and cell pellets were collected at 24 and 36 h post-infection and the TCID50 was used to evaluate the viral loads of intracellular and extracellular.
Measurement of viral titer was described previously ([5]). […]
Figure 3 The anti-CCV activity by different concentration of kaempferol in vitro. […] The relative expression levels of the CCV ORF 39 and ORF 59 genes were evaluated by RT-qPCR at 24 h (A) and 36 h (B) post-infection. […] The cells were collected at 24 h (E) and 36 h (F) after infection and CCV ORF 39 and ORF59 proteins and cellular GADPH were analyzed by western blot. (G) The intracellular and released CCV virions separated from cell lysates and supernatants at 24 h and 36 h post infection were analyzed by viral titer. […] The p value was determined by *p < 0.05, **p < 0.01.

[3] = test system: CCO cells; test: Compounds cytotoxicity assay (CCK-8 cell viability); format: cell-based; conditions: channel catfish, 72 h
Description: The cytotoxicity effects of the selected compounds were detected in CCO cells by the cell viability assay. In brief, the CCO cells were seeded in 96-well plates and cultured to reach approximately 90% confluence in each well at 28°C. Subsequently, the monolayer cells were exposed to a maintenance medium with the tested compounds at different concentrations or DMSO for 72 h. Cell Counting Kit-8 (Beyotime, China) was used to measure the cell viability according to the manufacturer’s protocol after 72 h incubation. The optical density at 450 nm was measured using a Spark microplate reader (TECAN, Switzerland). Then, the maximum safe concentration (≥ 90% cell survived, SC90) of compounds to CCO cells was calculated according to the cell viability.
All data were analyzed with GraphPad Prism 8.0. Viral titers were log10 transformed prior to statistical analyses. The SC90 values were calculated using probit analysis. The data are expressed as the arithmetic mean ± standard deviation (SD) and were analyzed by one-way ANOVA with multiple comparisons test. Statistical significance was defined as *p < 0.05, **p < 0.01.
Figure 1 Cytotoxicity assay. The CCO cells were treated with 12 tested compounds with different concentrations in a 96-well plate for 72 h, and then the cell viability was measured by CCK-8. (A) Kaempferol, (B) Tannic acid, (C) P-Coumaric acid, (D) Magnolol, (E) Baicalein, (F) Genistein, (G) Mangiferin, (H) Rosmarinic acid, (I) Artemisinin, (J) Myricetin, (K) Ginkgolic acid, (L) Shikonin. Data represent mean ± SD normalized to values for DMSO treated group. The SC90 was analyzed and calculated using probit analysis. TEXT PRINTED IN THE PICTURE: (A) Kaempferol: SC90 = 47.53 μg/ml | (B) Tannic acid: SC90 = 90.02 μg/ml | (C) P-Coumaric acid: SC90 ≥500 μg/ml | (D) Magnolol: SC90 = 10.02 μg/ml | (E) Baicalein: SC90 = 29.73 μg/ml | (F) Genistein: SC90 = 13.66 μg/ml | (G) Mangiferin: SC90 ≥500 μg/ml | (H) Rosmarinic acid: SC90 = 46.37 μg/ml | (I) Artemisinin: SC90 ≥500 μg/ml | (J) Myricetin: SC90 = 346.19 μg/ml | (K) Ginkgolic acid: SC90 = 10.89 μg/ml | (L) Shikonin: SC90 = 54.44 μg/ml DOUBTS OF THE COPYIST ABOUT THIS PICTURE: All SC90 values are in small print, so 3, 5, 6, 8 and 9 are hard to tell apart / Kaempferol, SC90: 47.53 (5 or 3 uncertain) / Tannic acid, SC90: 90.02 (9 or 8 uncertain) / Baicalein, SC90: 29.73 (9 or 3 uncertain) / Genistein, SC90: 13.66 (3 and 6 uncertain) / Rosmarinic acid, SC90: 46.37 (6 and 3 uncertain) / Myricetin, SC90: 346.19 (3, 6 and 9 uncertain) / Ginkgolic acid, SC90: 10.89 (8 and 9 uncertain) / Shikonin, SC90: 54.44 (5 uncertain) / P-Coumaric acid, Mangiferin, Artemisinin, SC90: sign ≥ or >; 500 (5 uncertain)

Q: What does the source list for `O=c1c(O)c(-c2ccc(O)cc2)oc2cc(O)cc(O)c12` [Kaempferol]?
A: inhibitory effect of CCV-ORF 39 and CCV-ORF 59 ([1]; 24 h post viral infection, kaempferol 2.5-15 μg/mL, RT-qPCR): over 85%; viral mRNA levels compared with the control group ([1]; 36 h post viral infection, kaempferol 10 μg/mL to 15 μg/mL): significantly lower; intracellular and progeny viral loads (viral titer) [2]: dramatically reduced; SC90 (maximum safe concentration, ≥ 90% cell survived) [3]: 47.53 µg/mL
